From patent US10259810B2, “N-sulfonylated pyrazolo[3,4-b]pyridin-6-carboxamides and method of use” (AbbVie S.à.r.l., priority 2015, dated 2019)

What was measured:
ΔF508-CFTR [1] = biological target: T1, ΔF508-CFTR (Homo sapiens, UniProt P13569, DEL508-508); experiment: CFTR cell surface levels using HRP-tagged ΔF508-CFTR expressing CFBE cells, intrinsic corrector capacity; format: cell-based; set-up: % Activation: concentration or dose not given beside the values; settings: HRP-tagged ΔF508-CFTR expressing CFBE41o- cells, compound alone (intrinsic corrector capacity), 20 hours at 33° C.; for EC50: read-out: EC50
T1 construct: host or cells: CFBE41o-, doxycycline-inducible
T1 sequence (P13569 with tags, fused parts or gaps DEL508-508): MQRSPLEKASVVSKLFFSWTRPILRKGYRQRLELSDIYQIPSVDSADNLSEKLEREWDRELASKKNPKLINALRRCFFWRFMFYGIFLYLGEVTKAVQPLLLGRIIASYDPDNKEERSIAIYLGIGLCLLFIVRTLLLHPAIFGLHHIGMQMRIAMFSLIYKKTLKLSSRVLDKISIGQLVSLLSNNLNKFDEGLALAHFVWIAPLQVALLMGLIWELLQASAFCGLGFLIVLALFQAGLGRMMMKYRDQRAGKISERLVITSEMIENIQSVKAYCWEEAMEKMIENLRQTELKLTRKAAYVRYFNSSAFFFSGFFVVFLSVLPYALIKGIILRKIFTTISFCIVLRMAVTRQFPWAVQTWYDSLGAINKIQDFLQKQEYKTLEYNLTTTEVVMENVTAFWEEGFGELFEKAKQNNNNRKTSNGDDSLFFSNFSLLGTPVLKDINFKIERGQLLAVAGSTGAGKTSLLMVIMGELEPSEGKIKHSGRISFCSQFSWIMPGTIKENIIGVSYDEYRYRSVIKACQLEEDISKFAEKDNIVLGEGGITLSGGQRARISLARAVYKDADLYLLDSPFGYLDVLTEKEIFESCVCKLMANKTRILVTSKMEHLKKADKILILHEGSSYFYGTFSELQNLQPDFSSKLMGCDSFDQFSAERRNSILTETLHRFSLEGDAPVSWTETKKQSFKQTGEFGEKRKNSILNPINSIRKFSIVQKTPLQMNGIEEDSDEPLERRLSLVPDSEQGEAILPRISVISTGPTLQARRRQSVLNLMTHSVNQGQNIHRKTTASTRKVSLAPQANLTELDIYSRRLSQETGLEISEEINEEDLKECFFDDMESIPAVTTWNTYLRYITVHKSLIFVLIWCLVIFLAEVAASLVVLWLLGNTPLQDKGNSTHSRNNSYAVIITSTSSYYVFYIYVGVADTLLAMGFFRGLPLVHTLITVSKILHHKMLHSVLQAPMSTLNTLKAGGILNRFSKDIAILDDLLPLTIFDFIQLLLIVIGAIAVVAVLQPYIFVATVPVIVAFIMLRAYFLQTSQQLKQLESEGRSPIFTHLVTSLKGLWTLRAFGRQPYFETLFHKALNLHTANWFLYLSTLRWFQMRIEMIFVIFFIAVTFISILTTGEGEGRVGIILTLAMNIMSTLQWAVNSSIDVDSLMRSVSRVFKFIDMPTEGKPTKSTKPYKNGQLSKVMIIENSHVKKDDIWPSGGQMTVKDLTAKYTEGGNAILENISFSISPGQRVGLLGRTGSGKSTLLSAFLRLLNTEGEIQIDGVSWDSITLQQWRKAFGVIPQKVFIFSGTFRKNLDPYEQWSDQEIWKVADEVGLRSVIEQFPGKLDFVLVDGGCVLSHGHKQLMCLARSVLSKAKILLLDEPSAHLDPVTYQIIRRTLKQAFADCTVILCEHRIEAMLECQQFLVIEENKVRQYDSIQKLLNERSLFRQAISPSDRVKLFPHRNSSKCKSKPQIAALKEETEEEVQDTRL
Outline: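 Surface ΔF508-CFTR was measured as HRP chemiluminescence from an extracellular-loop-4 tag, expressed as percent activity between DMSO and a […] corrector control.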

ΔF508-CFTR [2] = biological target: T1, ΔF508-CFTR; experiment: CFTR cell surface levels using HRP-tagged ΔF508-CFTR expressing CFBE cells, in the presence of a co-corrector; format: cell-based; settings: HRP-tagged ΔF508-CFTR CFBE cells, in the presence of 3 μM co-corrector; for EC50: read-out: EC50
Outline: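 Chemiluminescent read-out of surface HRP (15 min, dark) after PBS washes. Activity is normalized as 100×(sample−DMSO)/(3 μM co-corrector alone−DMSO).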

Row | Compound | % Activation (ΔF508-CFTR [1]) [%] | EC50 (ΔF508-CFTR [1]) [µM] | % Activation (ΔF508-CFTR [2]) [%] | EC50 (ΔF508-CFTR [2]) [µM]
1 | CN(C1CCOCC1)S(=O)(=O)NC(=O)c1cc(N2CCC(N3CCOCC3)CC2)c2c(C3CCC3)nn(-c3ccc(F)cc3)c2n1 [Compound 579, 3-cyclobutyl-1-(4-fluorophenyl)-N-[methyl(oxan-4-yl)sulfamoyl]-4-[4-(morpholin-4-yl)piperidin-1-yl]-1H-pyrazolo[3,4-b]pyridine-6-carboxamide] | 205 | 0.376 | 420.5 | 0.319
2 | O=C(NS(=O)(=O)N1CC(F)(F)C1)c1cc(N2CCC(N3CCOCC3)CC2)c2c(C3CCC3)nn(-c3ccc(F)cc3)c2n1 [Compound 580, 3-cyclobutyl-N-(3,3-difluoroazetidine-1-sulfonyl)-1-(4-fluorophenyl)-4-[4-(morpholin-4-yl)piperidin-1-yl]-1H-pyrazolo[3,4-b]pyridine-6-carboxamide] | 201.52 | 0.131 | 387.45 | 0.0524
3 | C[C@H]1CN(c2cc(C(=O)NS(=O)(=O)N(C)C)nc3c2c(C2CCC2)nn3C2CCCCC2)CCN1Cc1ccccc1 [Compound 581, 4-[(3S)-4-benzyl-3-methylpiperazin-1-yl]-3-cyclobutyl-1-cyclohexyl-N-(dimethylsulfamoyl)-1H-pyrazolo[3,4-b]pyridine-6-carboxamide] | 33.38 | 0.37 | 191.3 | 0.761
4 | C[C@@H]1CN(c2cc(C(=O)NS(=O)(=O)N(C)C)nc3c2c(C2CCC2)nn3C2CCCCC2)CCN1Cc1ccccc1 [Compound 582, 4-[(3R)-4-benzyl-3-methylpiperazin-1-yl]-3-cyclobutyl-1-cyclohexyl-N-(dimethylsulfamoyl)-1H-pyrazolo[3,4-b]pyridine-6-carboxamide] | 75.38 | 0.37 | 245.15 | 0.271
5 | CN(C)S(=O)(=O)NC(=O)c1cc(N2CCC3(CC2)CCN(C2CC2)CC3)c2c(C3CCC3)nn(-c3ccc(F)cc3)c2n1 [Compound 584, 3-cyclobutyl-4-(9-cyclopropyl-3,9-diazaspiro[5.5]undecan-3-yl)-N-(dimethylsulfamoyl)-1-(4-fluorophenyl)-1H-pyrazolo[3,4-b]pyridine-6-carboxamide] | 164.3 | 0.177 | 337.55 | 0.272
6 | COC1CN(C2CCN(c3cc(C(=O)NS(C)(=O)=O)nc4c3c(C3CCC3)nn4-c3ccc(F)cc3)CC2)C1 [Compound 585, 3-cyclobutyl-1-(4-fluorophenyl)-N-(methanesulfonyl)-4-[4-(3-methoxyazetidin-1-yl)piperidin-1-yl]-1H-pyrazolo[3,4-b]pyridine-6-carboxamide] | 316.6 | 1.24 | 509.7 | 0.248
7 | CS(=O)(=O)NC(=O)c1cc(N2CCC(N3CCCC(C(F)(F)F)C3)CC2)c2c(C3CCC3)nn(-c3ccc(F)cc3)c2n1 (centres unmarked) [Compound 586, 3-cyclobutyl-1-(4-fluorophenyl)-N-(methanesulfonyl)-4-[3-(trifluoromethyl)[1,4'-bipiperidin]-1'-yl]-1H-pyrazolo[3,4-b]pyridine-6-carboxamide] | 331.67 | 0.0524 | 618.65 | 0.0371
8 | COC1CCCN(C2CCN(c3cc(C(=O)NS(C)(=O)=O)nc4c3c(C3CCC3)nn4-c3ccc(F)cc3)CC2)C1 (centres unmarked) [Compound 587, 3-cyclobutyl-1-(4-fluorophenyl)-N-(methanesulfonyl)-4-(3-methoxy[1,4'-bipiperidin]-1'-yl)-1H-pyrazolo[3,4-b]pyridine-6-carboxamide] | 277.1 | 0.235 | 504.6 | 0.398
9 | CC1(C)CN(C2CCN(c3cc(C(=O)NS(C)(=O)=O)nc4c3c(C3CCC3)nn4-c3ccc(F)cc3)CC2)CCO1 [Compound 588, 3-cyclobutyl-4-[4-(2,2-dimethylmorpholin-4-yl)piperidin-1-yl]-1-(4-fluorophenyl)-N-(methanesulfonyl)-1H-pyrazolo[3,4-b]pyridine-6-carboxamide] | 366.8 | 0.126 | 571.2 | 0.029
10 | COCCN(C)C1CCN(c2cc(C(=O)NS(=O)(=O)N(C)C)nc3c2c(C2CCC2)nn3-c2ccc(F)cc2)CC1 [Compound 591, 3-cyclobutyl-N-(dimethylsulfamoyl)-1-(4-fluorophenyl)-4-{4-[(2-methoxyethyl)(methyl)amino]piperidin-1-yl}-1H-pyrazolo[3,4-b]pyridine-6-carboxamide] | 189.1 | 0.795 | 384 | 1.59
11 | CONS(=O)(=O)NC(=O)c1cc(N2CCC(N3CCOCC3)CC2)c2c(C3CCC3)nn(-c3ccc(F)cc3)c2n1 [Compound 592, 3-cyclobutyl-1-(4-fluorophenyl)-N-(methoxysulfamoyl)-4-[4-(morpholin-4-yl)piperidin-1-yl]-1H-pyrazolo[3,4-b]pyridine-6-carboxamide] | 300.8 | 0.183 | 518.55 | 0.0568
12 | CS(=O)(=O)NC(=O)c1cc(C2CCN(C3CCC(F)(F)CC3)CC2)c2c(C3CCC3)nn(-c3ccc(F)cc3)c2n1 [Compound 593, 3-cyclobutyl-4-[1-(4,4-difluorocyclohexyl)piperidin-4-yl]-1-(4-fluorophenyl)-N-(methanesulfonyl)-1H-pyrazolo[3,4-b]pyridine-6-carboxamide] | 157.8 | 0.19 | 366.7 | 0.194
13 | CN(C)S(=O)(=O)NC(=O)c1cc(CN2CCC(N3CCOCC3)CC2)c2c(C3CCC3)nn(-c3ccc(F)cc3)c2n1 [Compound 595, 3-cyclobutyl-N-(dimethylsulfamoyl)-1-(4-fluorophenyl)-4-{[4-(morpholin-4-yl)piperidin-1-yl]methyl}-1H-pyrazolo[3,4-b]pyridine-6-carboxamide] | 58.87 | 1.52 | 231.9 | 1.43
14 | CS(=O)(=O)NC(=O)c1cc(CN2CCC(N3CCOCC3)CC2)c2c(C3CCC3)nn(-c3ccc(F)cc3)c2n1 [Compound 596, 3-cyclobutyl-1-(4-fluorophenyl)-N-(methanesulfonyl)-4-{[4-(morpholin-4-yl)piperidin-1-yl]methyl}-1H-pyrazolo[3,4-b]pyridine-6-carboxamide] | 104.3 | 1.38 | 304.8 | 1.91
15 | CC(C)N1CCC(c2cc(C(=O)NS(=O)(=O)N(C)C)nc3c2c(C2CCC2)nn3-c2ccc(F)cc2)CC1 [Compound 598, 3-cyclobutyl-N-(dimethylsulfamoyl)-1-(4-fluorophenyl)-4-[1-(propan-2-yl)piperidin-4-yl]-1H-pyrazolo[3,4-b]pyridine-6-carboxamide] | 28.03 | – | 153.9 | ≥ 10
16 | CS(=O)(=O)NC(=O)c1cc(C2CCN(CC3CCOCC3)CC2)c2c(C3CCC3)nn(-c3ccc(F)cc3)c2n1 [Compound 600, 3-cyclobutyl-1-(4-fluorophenyl)-N-(methanesulfonyl)-4-{1-[(oxan-4-yl)methyl]piperidin-4-yl}-1H-pyrazolo[3,4-b]pyridine-6-carboxamide] | 126.5 | 1.21 | 326.1 | 1.62
17 | CN(C)S(=O)(=O)NC(=O)c1cc(C2CCN(CC3CCOCC3)CC2)c2c(C3CCC3)nn(-c3ccc(F)cc3)c2n1 [Compound 601, 3-cyclobutyl-N-(dimethylsulfamoyl)-1-(4-fluorophenyl)-4-{1-[(oxan-4-yl)methyl]piperidin-4-yl}-1H-pyrazolo[3,4-b]pyridine-6-carboxamide] | 112 | 2.18 | 273.9 | 0.625
18 | COC1CC(CN2CCC(c3cc(C(=O)NS(C)(=O)=O)nc4c3c(C3CCC3)nn4-c3ccc(F)cc3)CC2)C(OC)O1 (centres unmarked) [Compound 602, 3-cyclobutyl-4-{1-[(2,5-dimethoxyoxolan-3-yl)methyl]piperidin-4-yl}-1-(4-fluorophenyl)-N-(methanesulfonyl)-1H-pyrazolo[3,4-b]pyridine-6-carboxamide] | 133.6 | 1.18 | 359.1 | 0.581
